Assay results from patent US20120214843A1, “Combination Treatment of Hydroxpyridonate Actinide/Lanthanide Decorporation Agents” (priority 2009, published 2012).

Columns and labels:
[1] = Pharmacokinetic studies using 14C-labeled ligands; format: in vivo
[2] = Actinide decorporation in mice after iv 241Am(III) injection, single or combined HOPO ligands; format: in vivo, Swiss-Weber mice; details: ligand injected ip at 24 h
Description: (§1) Ligand Combination. […] Tetradentate 5-LIO(Me-3,2-HOPO), HOPO (2), is structurally suitable for chelating Np(V) and U(VI). Treatment is likely to be delayed in human contamination with dispersed radionuclides. Those conditions were approached, using mice, by ligand injection ip at 24 h or oral administration at 1 or 24 h after an iv actinide injection. Dosages of (1) and (2) were, respectively, 30 and 100 μmolkg^−1 ip and 100 and 200 μmolkg^−1 oral. Because mixtures of radionuclides may be released, (1) and (2) were combined to take advantage of their differing efficacies for the actinides. Dosages of combined (1) and (2) were, respectively, 30 plus […] injected ip and […] oral. Actinides in all mouse tissues and excreta were determined using published methods.
(§2) Tetradentate 5-LIO(Me-3,2-HOPO), HOPO (2), is structurally suitable for chelating Np(V) and U(VI). Treatment is likely to be delayed in human contamination with dispersed radionuclides. Those conditions were approached, using mice, by ligand injection ip at 24 h or oral administration at 1 or 24 h after an iv actinide injection. Dosages of (1) and (2) were, respectively, 30 and 100 μmolkg-1 ip and 100 and 200 μmolkg-1 oral. […] Actinides in all mouse tissues and excreta were determined using published methods. […]

[3] = Actinide decorporation in mice, all actinides and protocols, comparison of treatments; design: species or system Swiss-Weber mice; details: mouse
Description: as §1, §2

[4] = Clearing Pu from mouse tissues relative to CaNa3-DTPA; format: in vivo
Excerpt: (§3) In vivo Efficacy. […] For example, the efficiency of 3,4,3-LI-1,2-HOPO for clearing circulating Pu from mouse tissues ranges from 100 times (skeleton) to 240 times (soft tissues) that of CaNa3-DTPA in five different protocols. In addition, the optimal activity dose of 3,4,3-LI-1,2-HOPO for removing newly deposited Pu from mice is 2.5% of the dose of CaNa3-DTPA used clinically. The tetradentate 5-LIO-Me-3,2-HOPO has potential therapeutic value for Pu, U, Am and Np, and its efficiency for clearing circulating Pu from mouse tissues ranges from 5 times (skeleton) to 15 times (liver) that of CaNa3-DTPA.

[5] = Actinide decorporation in mice after iv 238Pu(IV) injection, single or combined HOPO ligands; format: in vivo, Swiss-Weber mice; details: ligand injected ip at 24 h
Description: as §1, §2

[6] = Oral removal of injected Pu; format: in vivo; details: administered orally to mice or beagles after a Pu injection
Excerpt: (§4) Oral Activity. Both compounds are orally active actinide chelators: when administered orally to mice or beagles after a Pu injection, 3,4,3-LI-1,2-HOPO and 5-LIO-Me-3,2-HOPO can remove up to 80% and 60%, respectively, of the injected Pu.

[7] = In vivo actinide chelation and removal compared with CaNa3-DTPA; design: species or system mice
Excerpt: as §3, §4

[8] = Actinide decorporation in mice after iv 237Np(V) injection, single or combined HOPO ligands; format: in vivo, Swiss-Weber mice
Description: as §1
(§5) Tetradentate 5-LIO(Me-3,2-HOPO), HOPO (2), is structurally suitable for chelating Np(V) and U(VI). Treatment is likely to be delayed in human contamination with dispersed radionuclides. Those conditions were approached, using mice, by ligand injection ip at 24 h or oral administration at 1 or 24 h after an iv actinide injection. Dosages of (1) and (2) were, respectively, 30 and 100 μmolkg-1 ip and 100 and 200 μmolkg-1 oral. Because mixtures of radionuclides may be released, (1) and (2) were combined to take advantage of their differing efficacies for the actinides. Dosages of combined (1) and (2) were, respectively, 30 plus 100 μmolkg-1 injected ip and 100 and 200 μmolkg-1 oral. Actinides in all mouse tissues and excreta were determined using published methods.
(§6) Objective: to assay the efficacy of the two ligands at promoting radionuclide excretion with prompt or delayed administration, as single or combined treatments, and to identify target organs and excretion pathways. The test system used Swiss-Weber mice (˜35 g). Actinide loading involves intravenous injection of An-citrate complex at t0. Samples of later taken of the whole skeleton, liver, kidneys, bulk soft tissues, urine, and feces (Σ=100%). (See Table 1.)

[9] = Actinide decorporation in mice after iv 233U(VI) injection, single or combined HOPO ligands; format: in vivo, Swiss-Weber mice
Description: as §1, §5, §6

## O=C(NCCCN(CCCCN(CCCNC(=O)c1cccc(=O)n1O)C(=O)c1cccc(=O)n1O)C(=O)c1cccc(=O)n1O)c1cccc(=O)n1O [3,4,3-LI(1,2-HOPO)]
[1]
  stability to metabolic degradation: stable to metabolic degradation
[2]
  reduction of liver and skeleton actinide, Am(III): appreciable and significant reductions
[3]
  in vivo chelation of Pu(IV) and Am(III): highly effective
[4]; mice
  optimal activity dose for removing newly deposited Pu from mice: 2.5 % of the dose of CaNa3-DTPA used clinically
[4]
  efficiency for clearing circulating Pu from mouse tissues, skeleton: 100 times that of CaNa3-DTPA
[4]; soft tissues, five different protocols
  efficiency for clearing circulating Pu from mouse tissues, soft tissues: 240 times that of CaNa3-DTPA
[5]
  reduction of liver and skeleton actinide, Pu(IV): appreciable and significant reductions
[6]
  injected Pu removed: up to 80%
[7]
  removing newly deposited Pu, Np, Am and U from mice, compared with CaNa3-DTPA: significantly more effective
[7]; mouse, in vivo
  Pu, Np, Th, Am and Cf chelation in vivo: highly effective

## Cn1ccc(C(=O)NCCOCCNC(=O)c2ccn(C)c(=O)c2O)c(O)c1=O [5-LIO(Me-3,2-HOPO)]
[1]
  stability to metabolic degradation: stable to metabolic degradation
[8]; ligand given orally at 1 h
  Np(V) excretion: about 115 % control
  liver Np(V): 25 % control
[8]; ligand injected ip at 24 h
  Np(V) excretion: about 3 times control
  liver Np(V): 30 % control
[8]; oral treatment at 24 h
  liver Np(V): 50 % control
[4]; liver
  efficiency for clearing circulating Pu from mouse tissues, liver: 15 times that of CaNa3-DTPA
[4]
  efficiency for clearing circulating Pu from mouse tissues, skeleton: 5 times that of CaNa3-DTPA
[9]; ligand given orally at 1 h
  U(VI) excretion: about 115 % control
  kidney U(VI): 50 % control
[9]; ligand injected ip at 24 h
  U(VI) excretion: about 3 times control
  kidney U(VI): 45 % control
[9]; oral treatment at 24 h
  kidney U(VI): 70 % control
[6]
  injected Pu removed: ≤ 60%
[7]
  removing newly deposited Pu, Np, Am and U from mice, compared with CaNa3-DTPA: significantly more effective
